Article PMC8773446, “Comparative Analysis of Three Trypanosomatid Catalases of Different Origin” (Antioxidants, 2021)

Columns and labels:
Conditions in all cases: 15 mM H2O2, 50 mM potassium phosphate pH 7, 1 min preincubation; read-out: 3-AT IC50
L. pyrrhocoris catalase = L. pyrrhocoris catalase (Leptomonas pyrrhocoris, UniProt A0A0M9FX30); test: biochemical
Method: (§1) The enzymatic inhibition was measured with 15 mM H2O2 and 50 mM potassium phosphate, pH 7. The enzyme was incubated with different concentrations of inhibitors (KCN or 3-amino-1,2,4-triazole, hereafter denoted as 3-AT, both from MilliporeSigma) for one minute, then the substrate was added and the residual activity was measured at 240 nm for 2 min [56]. All measurements were performed in triplicate.

[1] = molecular target: V. ingenoplastis catalase; type: biochemical, Vickermania ingenoplastis
Method: as §1

[2] = molecular target: Blastocrithidia sp. catalase; type: biochemical
Method: as §1

Chain of L. pyrrhocoris catalase (A0A0M9FX30 entry or part of it): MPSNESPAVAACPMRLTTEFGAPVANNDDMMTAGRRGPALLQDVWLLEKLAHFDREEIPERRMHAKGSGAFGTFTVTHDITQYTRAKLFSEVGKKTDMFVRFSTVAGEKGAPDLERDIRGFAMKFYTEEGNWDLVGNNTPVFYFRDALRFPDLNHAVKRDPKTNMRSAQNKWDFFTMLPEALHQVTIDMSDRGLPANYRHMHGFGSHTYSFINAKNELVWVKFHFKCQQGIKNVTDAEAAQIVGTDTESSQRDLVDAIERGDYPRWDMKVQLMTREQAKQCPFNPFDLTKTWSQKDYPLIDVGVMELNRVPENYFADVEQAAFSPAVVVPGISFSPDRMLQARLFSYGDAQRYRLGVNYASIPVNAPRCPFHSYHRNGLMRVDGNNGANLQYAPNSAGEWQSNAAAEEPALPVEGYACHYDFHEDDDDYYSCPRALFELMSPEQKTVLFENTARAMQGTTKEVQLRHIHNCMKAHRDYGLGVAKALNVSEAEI

**Q.** `Nc1nc[nH]n1` [3-AT, 3-amino-1,2,4-triazole] was tested. Which IC50 (L. pyrrhocoris catalase) did it give?
**A.** 10.4 mM

**Q.** What about the IC50 [1] of the same compound?
**A.** 11.4 mM

**Q.** What about the IC50 [2] of the same compound?
**A.** 15.6 mM
